Test system: NOMO1
Assay: cell viability relative to DMSO control; higher = less cytotoxic
Settings: 48 h
Outline: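 Three leukemia lines were tested: NOMO1 and SEM at 500 cells/well and P12-Ichikawa at 1000 cells/well. Each was adapted for at least four passages in each medium and seeded in 5 μl in 1536-well plates, and library compounds in DMSO were pin-dosed from 47 μM to 0.79 nM in 11 threefold steps. After 48 h at 37°C, CellTiter-Glo One luminescence was read. Viability is a percentage relative to DMSO wells on each plate, with cell-free wells as background.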

[1] = HPLM + 10% dialyzed FBS, 0.000781 µM
[2] = HPLM + 10% dialyzed FBS, 0.00234 µM
[3] = HPLM + 10% dialyzed FBS, 0.00702 µM
[4] = HPLM + 10% dialyzed FBS, 0.0211 µM
[5] = HPLM + 10% dialyzed FBS, 0.0632 µM
[6] = HPLM + 10% dialyzed FBS, 0.19 µM
[7] = HPLM + 10% dialyzed FBS, 0.569 µM
[8] = HPLM + 10% dialyzed FBS, 1.71 µM
[9] = HPLM + 10% dialyzed FBS, 5.12 µM
[10] = HPLM + 10% dialyzed FBS, 15.4 µM
[11] = HPLM + 10% dialyzed FBS, 46.1 µM
[12] = RPMI 5 mM glucose + 10% FBS, 0.000781 µM
[13] = RPMI 5 mM glucose + 10% FBS, 0.00234 µM
[14] = RPMI 5 mM glucose + 10% FBS, 0.00702 µM
[15] = RPMI 5 mM glucose + 10% FBS, 0.0211 µM
[16] = RPMI 5 mM glucose + 10% FBS, 0.0632 µM
[17] = RPMI 5 mM glucose + 10% FBS, 0.19 µM
[18] = RPMI 5 mM glucose + 10% FBS, 0.569 µM
[19] = RPMI 5 mM glucose + 10% FBS, 1.71 µM
[20] = RPMI 5 mM glucose + 10% FBS, 5.12 µM
[21] = RPMI 5 mM glucose + 10% FBS, 15.4 µM
[22] = RPMI 5 mM glucose + 10% FBS, 46.1 µM
[23] = RPMI 5 mM glucose + 10% dialyzed FBS, 0.000781 µM
[24] = RPMI 5 mM glucose + 10% dialyzed FBS, 0.00234 µM
[25] = RPMI 5 mM glucose + 10% dialyzed FBS, 0.00702 µM
[26] = RPMI 5 mM glucose + 10% dialyzed FBS, 0.0211 µM
[27] = RPMI 5 mM glucose + 10% dialyzed FBS, 0.0632 µM
[28] = RPMI 5 mM glucose + 10% dialyzed FBS, 0.19 µM
[29] = RPMI 5 mM glucose + 10% dialyzed FBS, 0.569 µM
[30] = RPMI 5 mM glucose + 10% dialyzed FBS, 1.71 µM
[31] = RPMI 5 mM glucose + 10% dialyzed FBS, 5.12 µM
[32] = RPMI 5 mM glucose + 10% dialyzed FBS, 15.4 µM
[33] = RPMI 5 mM glucose + 10% dialyzed FBS, 46.1 µM

SMILES | cell viability [1] [%] | cell viability [2] [%] | cell viability [3] [%] | cell viability [4] [%] | cell viability [5] [%] | cell viability [6] [%] | cell viability [7] [%] | cell viability [8] [%] | cell viability [9] [%] | cell viability [10] [%] | cell viability [11] [%] | cell viability [12] [%] | cell viability [13] [%] | cell viability [14] [%] | cell viability [15] [%] | cell viability [16] [%] | cell viability [17] [%] | cell viability [18] [%] | cell viability [19] [%] | cell viability [20] [%] | cell viability [21] [%] | cell viability [22] [%] | cell viability [23] [%] | cell viability [24] [%] | cell viability [25] [%] | cell viability [26] [%] | cell viability [27] [%] | cell viability [28] [%] | cell viability [29] [%] | cell viability [30] [%] | cell viability [31] [%] | cell viability [32] [%] | cell viability [33] [%]
O=C(NCC[S+](=O)([O-])c1ccc(C(F)(F)F)cn1)c1ccc(Cl)cc1 | 127 | 117 | 119 | 117 | 119 | 120 | 132 | 117 | 105 | 122 | 106 | 122 | 144 | 116 | 134 | 135 | 127 | 123 | 118 | 130 | 128 | 110 |  |  |  |  |  |  |  |  |  |  | 
C[C@H]1[C@H](NC(=O)/C(=N/OC(C)(C)C(=O)O)c2csc(N)n2)C(=O)N1[S+](=O)([O-])O | 98.5 | 98 | 98.9 | 111 | 108 | 110 | 113 | 88.2 | 102 | 85.3 | 90.4 | 105 | 98.3 | 101 | 108 | 107 | 105 | 107 | 104 | 92.3 | 108 | 103 | 94.2 | 101 | 94.1 | 92.3 | 97.3 | 94.7 | 91.7 | 99.2 | 85.2 | 91.1 | 83.3
CC(C)OC(=O)OCOP(=O)(CO[C@H](C)Cn1cnc2c(N)ncnc21)OCOC(=O)OC(C)C.O=C(O)C=CC(=O)O | 98.7 | 120 | 120 | 105 | 133 | 129 | 126 | 123 | 104 | 89.6 | 53.1 | 95.8 | 121 | 125 | 116 | 115 | 128 | 109 | 118 | 115 | 103 | 38.6 | 117 | 117 | 112 | 117 | 124 | 122 | 128 | 124 | 114 | 102 | 15.1
CNC(=O)c1ccc(-c2cnc3ncc(Cc4ccc5ncccc5c4)n3n2)cc1F | 113 | 127 | 120 | 103 | 132 | 116 | 131 | 133 | 125 | 117 | 135 |  |  |  |  |  |  |  |  |  |  |  | 116 | 124 | 138 | 131 | 126 | 136 | 129 | 136 | 130 | 137 | 145
COC1CCC(CC1)N(C(=O)C2CCC(C)CC2)C3=C(SC(=C3)\C4=C\CCCC4)C(O)=O (stereo not given) | 120 | 120 | 109 | 127 | 128 | 130 | 107 | 112 | 106 | 90.9 | 52.6 | 103 | 115 | 104 | 119 | 102 | 104 | 91.5 | 105 | 103 | 90.7 | 96 | 102 | 102 | 120 | 102 | 110 | 99.4 | 97 | 109 | 104 | 93.4 | 84.5
CC1(C)CC(=O)c2c(C(F)(F)F)nn(-c3ccc(C(N)=O)c(NC4CCC(O)CC4)c3)c2C1 (stereo not given) | 83.4 | 77.1 | 69 | 72.5 | 96.9 | 58.7 | 16 | 14.1 | 15.1 | 15.6 | 78.3 | 86.5 | 81.8 | 82.1 | 84.2 | 82.2 | 47.7 | 12.5 | 9.32 | 8.93 | 8.3 | 75.8 | 91.7 | 94.1 | 102 | 94.5 | 81.6 | 48.9 | 17.1 | 12.1 | 12.2 | 11.6 | 80.6
CC1(C)Cc2c(-c3ccccc3)c(-c3ccc(Cl)cc3)c(CC(=O)O)n2C1 | 115 | 106 | 130 | 131 | 111 | 120 | 128 | 106 | 108 | 99.5 | 90.6 | 102 | 123 | 118 | 124 | 119 | 115 | 112 | 101 | 99 | 111 | 96.8 | 110 | 114 | 105 | 115 | 117 | 113 | 114 | 106 | 105 | 91.8 | 89.2
COc1cnc(N[S+](=O)([O-])c2ccc(N)cc2)nc1 | 111 | 114 | 106 | 125 | 125 | 119 | 114 | 130 | 114 | 84.5 | 31.1 | 122 | 118 | 114 | 112 | 124 | 131 | 138 | 128 | 125 | 110 | 48.2 | 110 | 118 | 123 | 125 | 121 | 127 | 114 | 125 | 98.5 | 97.5 | 63.5
CCCCCOC(=O)NC\1=N\C(=O)N(\C=C1F)[C@@H]2O[C@H](C)[C@@H](O)[C@H]2O | 114 | 111 | 97 | 99.7 | 95.6 | 106 | 92.9 | 98.7 | 93.8 | 72.8 | 81.4 | 90.8 | 92.6 | 97.9 | 90.8 | 90.7 | 102 | 91.2 | 87.9 | 86.4 | 85 | 83.3 | 99.2 | 105 | 106 | 105 | 103 | 99.4 | 101 | 109 | 92 | 73.8 | 92.5
CC(C)(C)c1cc(NC(=O)Nc2ccc(-c3cn4c(n3)sc3cc(OCCN5CCOCC5)ccc34)cc2)no1 | 92.8 | 93.9 | 90.5 | 104 | 101 | 102 | 87.3 | 99.7 | 110 | 123 | 96.5 | 76.8 | 76 | 85.1 | 88.3 | 82 | 79.2 | 81.4 | 87 | 81.4 | 81.8 | 88.5 | 85.1 | 94.8 | 101 | 82.3 | 90.5 | 90.8 | 90.8 | 93.1 | 92.9 | 92.1 | 89.7
CC/C(=C(/c1ccc(O)cc1)c1ccc(OCCNC)cc1)c1ccccc1 | 99.4 | 98.4 | 98 | 103 | 106 | 130 | 113 | 123 | 90.8 | 75.9 | 47.1 | 102 | 97.2 | 120 | 108 | 114 | 97.9 | 117 | 122 | 108 | 100 | 45.8 | 103 | 99.7 | 102 | 115 | 101 | 106 | 111 | 104 | 96.2 | 84.3 | 55.6
CC\1=C(C(\N=C(/N1)C2=CC(=NC=C2)Cl)C3=C(F)C=C(Cl)C=C3)/C(=O)NC4=C(F)C=C5[NH]N=CC5=C4 (stereo not given) | 85.8 | 97.5 | 108 | 116 | 112 | 96.7 | 107 | 110 | 105 | 115 | 27 | 101 | 100 | 101 | 104 | 95.3 | 93.4 | 95.7 | 98.2 | 89 | 85.3 | 29.4 | 94.7 | 96.6 | 122 | 111 | 108 | 99.8 | 106 | 98.2 | 82.7 | 97.3 | 40.7
CCc1cncnc1N1CCN(Cc2nc3cc(C(F)(F)F)ccc3[nH]2)CC1 | 105 | 114 | 114 | 98.5 | 108 | 97.7 | 97.6 | 94 | 107 | 92 | 64.2 | 95.4 | 87.8 | 99.5 | 93.1 | 90.8 | 93.4 | 90.1 | 90.1 | 81.3 | 79.9 | 74.7 | 95.8 | 82.6 | 93.8 | 100 | 95.3 | 85.5 | 88.8 | 97.4 | 88.6 | 75.8 | 70.3
COC1=CC=CC2=C1C(=NC(=N2)C3=CC=CS3)NN4C(=O)\C=C(C)/C4=O | 95.7 | 103 | 94 | 87.7 | 77.6 | 60.3 | 44.1 | 38.2 | 8.17 | 1.91 | 2.25 | 90 | 88.4 | 92.9 | 84.8 | 92.3 | 78.2 | 56.2 | 48.2 | 14.4 | 3.32 | 4.06 | 81.1 | 85.3 | 94.5 | 82.4 | 74.6 | 68.8 | 50.4 | 38.9 | 16.9 | 4.27 | 2.63
C=C(C)[C@@H]1CC[C@]2(C(=O)O)CC[C@]3(C)[C@H](CC[C@@H]4[C@@]5(C)CC[C@H](O)C(C)(C)[C@@H]5CC[C@]43C)[C@@H]12 | 115 | 124 | 107 | 123 | 119 | 110 | 118 | 105 | 102 | 94.6 | 95.7 | 116 | 118 | 121 | 111 | 115 | 111 | 119 | 113 | 111 | 114 | 97.1 |  |  |  |  |  |  |  |  |  |  | 
CC(C)[C@@H](N(CCCN)C(=O)C1=CC=C(C)C=C1)C/2=N/C3=CC(=CC=C3C(=O)N2CC4=CC=CC=C4)Cl | 88.4 | 25.4 | 29.7 | 21.4 | 20.8 | 27.1 | 28 | 24.4 | 20 | 15.8 | 11.4 | 81.9 | 16 | 16.1 | 17.8 | 16.9 | 15.3 | 15.3 | 14.3 | 9.97 | 9.55 | 7.35 | 78.1 | 24 | 24.8 | 21.9 | 22.9 | 24.4 | 18.7 | 15.8 | 11.7 | 16.3 | 11.1
